According to patent publication US20100138935A1, “Detection of cellular stress” (priority 2004, published 2010):

How the values were obtained:
[1] = system: HOZ mice; assay: Histopathology (H&E) of HOZ mouse liver and kidney; assay type: in vivo; conditions: 10 mg/kg i.p. in saline, 24 hours
Protocol: Two further slices (˜2 mm thickness) were placed in 10% neutral buffered formalin (10% NBF) overnight then processed, sectioned and stained with haematoxylin and eosin (H&E).
Initially, one HOZ mouse was given 10 mg/kg body weight cadmium chloride i.p. One control animal received the vehicle solution, isotonic saline, i.p. and an untreated animal was used as a second control. The animals were killed 24 hours after dosing and liver, kidney and brain were collected for H&E staining and lacZ histology.
Sections of HOZ mouse liver and kidney were prepared and stained according to standard procedures (H&E). (a, b) Naive control; (c, d) Saline treated; (e, f) Cadmium chloride treated (10 mg/kg i.p. in saline). All images in FIG. 5 are of H&E stained sections: (a, c and e) are of liver; b, d and f are of kidney (original magnification ×100).

[2] = system: HOZ mice; assay: Plasma ALT as a marker of hepatotoxicity in HOZ mice; assay type: in vivo, mouse
Protocol: (§1) Terminal blood samples were taken by cardiac puncture into lithium/heparin-coated tubes for preparation of plasma. Tissues, as defined in each protocol, were routinely dissected as follows:
(§2) Following removal into tubes suitable for plasma preparation, venous blood samples were mixed on a roller for 10 minutes then cooled on ice. Red blood cells were removed by centrifugation at 2,000 rpm for 10 minutes at 8-10° C. The supernatant (plasma) was transferred to a second tube and stored at −70° C. until required for analysis.
(§3) Plasma samples were analysed for appropriate analytes on a Roche autoanalyser (Cobas Integra 400) according to the manufacturer's instructions. The routine markers measured included: (for liver damage) plasma alanine aminotransferase (ALT), aspartate aminotransferase (AST) and alkaline phosphatase (ALP) and (for kidney damage) plasma creatinine and blood urea nitrogen (BUN).
Two plasma enzyme markers, ALT and AST, were used as markers of hepatotoxicity in HOZ mice treated with cadmium chloride or sodium arsenite. The results of this analysis for HOZ mice treated with 10 mg/kg cadmium chloride are shown in Table 1 and for HOZ mice treated with 2-8 mg/kg cadmium chloride or 13 mg/kg sodium arsenite in Tables 2 and 3.

[3] = system: HOZ mice; assay: Plasma AST as a marker of hepatotoxicity in HOZ mice; assay type: in vivo, mouse
Protocol: as §1, §2, §3
Two plasma enzyme markers, ALT and AST, were used as markers of hepatotoxicity in HOZ mice treated with cadmium chloride or sodium arsenite. […]

[4] = system: HOZ mice; assay: BUN as a marker of nephrotoxicity in HOZ mice; assay type: in vivo, mouse; set-up: BUN: unit not given here
Protocol: as §1, §2, §3
The increase in BUN was 6-fold at 8 hours and 44-fold after 24 hours.

[5] = HOZ mouse, 10 mg/kg i.p., 24 hours
[6] = female, 8 mg/kg, after 24 hours
[7] = male, 8 mg/kg, 24 hours after treatment

SMILES: [Cl][Cd][Cl] [Cadmium Chloride, cadmium chloride]
- kidney histology (H&E) [1]: occasional necrotic proximal convoluted tubules (PCTs)
- liver histology (H&E) [1]: acute toxicity manifesting as hepatocyte vacuolation and areas of necrosis associated with deposits of erythrocytes
- ALT [2, 5]: 1834.8 U/L
- Plasma ALT ([2]; female, 1 mg/kg, 8 hours): 33.3 u/L
- Plasma ALT ([2]; female, 1 mg/kg, 24 hours): 28.2 u/L
- Plasma ALT ([2]; female, 2 mg/kg, 8 hours): 22.8 u/L
- Plasma ALT ([2]; female, 2 mg/kg, 24 hours): 26.1 u/L
- Plasma ALT ([2]; female, 4 mg/kg, 8 hours): 55.6 u/L
- Plasma ALT ([2]; female, 4 mg/kg, 24 hours): 23.7 u/L
- increase in plasma ALT ([2]; female, 4 mg/kg, after 8 hours): 2.4 fold
- increase in ALT ([2]; female, 4 mg/kg, second statement, printed as after 8 hours): ≤ 2 fold
- Plasma ALT ([2]; female, 8 mg/kg, 8 hours): 3930.6 u/L
- Plasma ALT ([2]; female, 8 mg/kg, 24 hours): 7010.4 u/L
- increase in plasma ALT ([2]; female, 8 mg/kg, after 8 hours): 170 fold
- increase in plasma ALT [2, 6]: 275 fold
- Plasma ALT ([2]; male, 1 mg/kg, 8 hours): 70.3 u/L
- Plasma ALT ([2]; male, 1 mg/kg, 24 hours): 33.1 u/L
- Plasma ALT ([2]; male, 2 mg/kg, 8 hours): 21.7 u/L
- Plasma ALT ([2]; male, 2 mg/kg, 24 hours): 19.4 u/L
- Plasma ALT ([2]; male, 4 mg/kg, 8 hours): 50.4 u/L
- Plasma ALT ([2]; male, 4 mg/kg, 24 hours): 74.7 u/L
- Plasma ALT ([2]; male, 8 mg/kg, 8 hours): 50.1 u/L
- Plasma ALT ([2]; male, 8 mg/kg, 24 hours): 306.3 u/L
- increase in ALT [2, 7]: 7.9 fold
- increase in ALT and AST ([2]; male, all other doses and time points): ≤ 2 fold
- AST [3, 5]: 4643.1 U/L
- Plasma AST ([3]; female, 1 mg/kg, 8 hours): 87.6 u/L
- Plasma AST ([3]; female, 1 mg/kg, 24 hours): 87.5 u/L
- Plasma AST ([3]; female, 2 mg/kg, 8 hours): 80.4 u/L
- Plasma AST ([3]; female, 2 mg/kg, 24 hours): 104.7 u/L
- Plasma AST ([3]; female, 4 mg/kg, 8 hours): 108.5 u/L
- Plasma AST ([3]; female, 4 mg/kg, 24 hours): 89.1 u/L
- increase in plasma AST ([3]; female, 4 mg/kg, at either time point (8, 24 hours)): no increase in plasma AST was observed
- Plasma AST ([3]; female, 8 mg/kg, 8 hours): 13425.6 u/L
- Plasma AST ([3]; female, 8 mg/kg, 24 hours): 8097.6 u/L
- increase in plasma AST ([3]; female, 8 mg/kg, after 8 hours): 237 fold
- increase in plasma AST [3, 6]: 97 fold
- Plasma AST ([3]; male, 1 mg/kg, 8 hours): 100.2 u/L
- Plasma AST ([3]; male, 1 mg/kg, 24 hours): 63.1 u/L
- Plasma AST ([3]; male, 2 mg/kg, 8 hours): 66.4 u/L
- Plasma AST ([3]; male, 2 mg/kg, 24 hours): 56.4 u/L
- Plasma AST ([3]; male, 4 mg/kg, 8 hours): 132.3 u/L
- Plasma AST ([3]; male, 4 mg/kg, 24 hours): 123.0 u/L
- Plasma AST ([3]; male, 8 mg/kg, 8 hours): 92.4 u/L
- Plasma AST ([3]; male, 8 mg/kg, 24 hours): 353.8 u/L
- increase in AST [3, 7]: 3.8 fold
- BUN ([4]; female, 1 mg/kg, 8 hours): 5.10
- BUN ([4]; female, 1 mg/kg, 24 hours): 4.36
- BUN ([4]; female, 2 mg/kg, 8 hours): 3.33
- BUN ([4]; female, 2 mg/kg, 24 hours): 2.85
- BUN ([4]; female, 4 mg/kg, 8 hours): 4.77
- BUN ([4]; female, 4 mg/kg, 24 hours): 3.66
- nephrotoxicity as measured by BUN ([4]; female, 8 mg/kg): mild nephrotoxicity
- BUN ([4]; female, 8 mg/kg, 8 hours): 22.86
- BUN ([4]; female, 8 mg/kg, 24 hours): 98.16
- increase in BUN [4, 6]: 44 fold
- increase in BUN ([4]; female, 8 mg/kg, at 8 hours): 6 fold
- nephrotoxicity as measured by BUN ([4]; male mice): No nephrotoxicity
- BUN ([4]; male, 1 mg/kg, 8 hours): 4.54
- BUN ([4]; male, 1 mg/kg, 24 hours): 5.27
- BUN ([4]; male, 2 mg/kg, 8 hours): 4.24
- BUN ([4]; male, 2 mg/kg, 24 hours): 5.10
- BUN ([4]; male, 4 mg/kg, 8 hours): 3.87
- BUN ([4]; male, 4 mg/kg, 24 hours): 4.11
- BUN ([4]; male, 8 mg/kg, 8 hours): 3.84
- BUN ([4]; male, 8 mg/kg, 24 hours): 4.85
